We go through 29 compounds from patent publication US8822503B2, “2-pyridone compounds” (Taisho Pharmaceutical Co., Ltd, priority 2009, dated 2014).

The target of this assay is T1, human liver GK (Homo sapiens, UniProt P35557).
T1 construct: GST (glutathione S-transferase) (N); made in house; host or cells: E. coli
T1 sequence (P35557 1-466 isoform P35557-2): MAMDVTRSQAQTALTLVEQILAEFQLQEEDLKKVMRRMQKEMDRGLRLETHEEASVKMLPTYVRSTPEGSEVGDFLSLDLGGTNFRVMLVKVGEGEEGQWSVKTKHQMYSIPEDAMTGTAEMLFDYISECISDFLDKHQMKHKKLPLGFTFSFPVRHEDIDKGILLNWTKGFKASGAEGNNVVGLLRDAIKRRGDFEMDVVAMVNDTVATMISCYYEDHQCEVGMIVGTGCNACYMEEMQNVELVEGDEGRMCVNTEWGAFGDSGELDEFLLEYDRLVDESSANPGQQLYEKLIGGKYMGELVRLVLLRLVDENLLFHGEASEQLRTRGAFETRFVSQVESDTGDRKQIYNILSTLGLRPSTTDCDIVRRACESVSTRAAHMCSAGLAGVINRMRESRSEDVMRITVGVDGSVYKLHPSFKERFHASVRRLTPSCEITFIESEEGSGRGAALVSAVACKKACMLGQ
Description: GK activation test. It counts as biochemical. As to conditions: test compound concentration needed to activate 50% of maximum activation ability; 4 mM 14C-labeled glucose, 2 mM ATP, room temperature, 20 minutes. In outline:
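GST-tagged human liver GK from E. coli (0.24 μg/well) with 4 mM 14C-glucose, 2 mM ATP in Hepes-KOH pH 7.1, KCl, MgCl2, DTT, 1% DMSO, 20 min room temperature. Labeled glucose 6-phosphate captured on anion resin, eluted and counted. EC50 = concentration giving half of maximal activation.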

As for `O=C1CC[C@H](/C=C(\c2ccc(C(F)(F)F)cc2)c2ccc(C3CC3)c(=O)[nH]2)N1` [Example 4-99, 3-Cyclopropyl-6-{(E)-2-[(2R)-5-oxopyrrolidin-2-yl]-1-[4-(trifluoromethyl)phenyl]ethenyl}pyridin-2(1H)-one], the 50% effective concentration (EC50) (in general, the concentration that produces a half-maximal response) is 10 to 500 nM.

On to `O=C1CC[C@H](/C=C(\c2ccc(F)cc2)c2ccc(C3CC3)c(=O)[nH]2)N1` [Example 4-100, 3-Cyclopropyl-6-{(E)-1-(4-fluorophenyl)-2-[(2R)-5-oxopyrrolidin-2-yl]ethenyl}pyridin-2(1H)-one], for which the EC50 lay within 500 to 3000 nM. `O=C1CC[C@H](/C=C(\c2ccc(Cl)c(Cl)c2)c2ccc(C3CC3)c(=O)[nH]2)N1` [Example 4-101, 3-Cyclopropyl-6-{(E)-1-(3,4-dichlorophenyl)-2-[(2R)-5-oxopyrrolidin-2-yl]ethenyl}pyridin-2(1H)-one] had an EC50 of 10 to 500 nM.

As for `Cc1ccc(/C(=C\[C@H]2CCC(=O)N2)c2ccc(C3CC3)c(=O)[nH]2)c(F)c1` [Example 4-102, 3-Cyclopropyl-6-{(E)-1-(2-fluoro-4-methylphenyl)-2-[(2R)-5-oxopyrrolidin-2-yl]ethenyl}pyridin-2(1H)-one], the EC50 fell in the range of 10 to 500 nM.

In turn, `O=C1CC[C@H](/C=C(\c2ccc(C(F)(F)F)c(Cl)c2)c2ccc(C3CC3)c(=O)[nH]2)N1` [Example 4-103, 6-{(E)-1-[3-Chloro-4-(trifluoromethyl)phenyl]-2-[(2R)-5-oxopyrrolidin-2-yl]ethenyl}-3-cyclopropylpyridin-2(1H)-one] came in with an EC50 of 10 to 500 nM. Under `O=C1CC[C@H](/C=C(\c2ccc(F)c(Cl)c2)c2ccc(C3CC3)c(=O)[nH]2)N1` [Example 4-104, 6-{(E)-1-(3-Chloro-4-fluorophenyl)-2-[(2R)-5-oxopyrrolidin-2-yl]ethenyl}-3-cyclopropylpyridin-2(1H)-one] stands 500 to 3000 nM; under `O=C1CC[C@H](/C=C(\c2ccc(Cl)c(C(F)(F)F)c2)c2ccc(C3CC3)c(=O)[nH]2)N1` [Example 4-105, 6-{(E)-1-[4-Chloro-3-(trifluoromethyl)phenyl]-2-[(2R)-5-oxopyrrolidin-2-yl]ethenyl}-3-cyclopropylpyridin-2(1H)-one], 10 to 500 nM.

Compound `Cc1ccc(/C(=C\[C@H]2CCC(=O)N2)c2ccc(C3CC3)c(=O)[nH]2)cc1Cl` [Example 4-106, 6-{(E)-1-(3-Chloro-4-methylphenyl)-2-[(2R)-5-oxopyrrolidin-2-yl]ethenyl}-3-cyclopropylpyridin-2(1H)-one] returned a 50% effective concentration (EC50) of 10 to 500 nM. The compound `Cc1cc(/C(=C\[C@H]2CCC(=O)N2)c2ccc(C3CC3)c(=O)[nH]2)ccc1Cl` [Example 4-107, 6-{(E)-1-(4-Chloro-3-methylphenyl)-2-[(2R)-5-oxopyrrolidin-2-yl]ethenyl}-3-cyclopropylpyridin-2(1H)-one] registered an EC50 of 10 to 500 nM. Compound `O=C1CC[C@H](/C=C(\c2ccc(C(F)(F)F)nc2)c2ccc(C3CC3)c(=O)[nH]2)N1` [Example 4-108, 3-Cyclopropyl-6-{(E)-2-[(2R)-5-oxopyrrolidin-2-yl]-1-[6-(trifluoromethyl)pyridin-3-yl]ethenyl}pyridin-2(1H)-one] displayed an EC50 of 500 to 3000 nM. Turning to `Cc1ccc(/C(=C\[C@H]2CCC(=O)N2)c2ccc(C3CC3)c(=O)[nH]2)c(Cl)c1` [Example 4-109, 6-{(E)-1-(2-Chloro-4-methylphenyl)-2-[(2R)-5-oxopyrrolidin-2-yl]ethenyl}-3-cyclopropylpyridin-2(1H)-one], the concentration for a half-maximal effect (EC50) fell in the range of 500 to 3000 nM.

Compound `O=C1CC[C@H](/C=C(/c2ccc(C3CC3)c(=O)[nH]2)c2ccc(Cl)cc2C(F)(F)F)N1` [Example 4-110, 6-{(E)-1-[4-Chloro-2-(trifluoromethyl)phenyl]-2-[(2R)-5-oxopyrrolidin-2-yl]ethenyl}-3-cyclopropylpyridin-2(1H)-one] yielded an EC50 of 500 to 3000 nM. Under `O=C1CC[C@H](/C=C(\c2ccc(Cl)c(F)c2)c2ccc(C3CC3)c(=O)[nH]2)N1` [Example 4-111, 6-{(E)-1-(4-Chloro-3-fluorophenyl)-2-[(2R)-5-oxopyrrolidin-2-yl]ethenyl}-3-cyclopropylpyridin-2(1H)-one] stands 10 to 500 nM; under `O=C1CC[C@H](/C=C(\c2ccc(F)c(F)c2)c2ccc(C3CC3)c(=O)[nH]2)N1` [Example 4-112, 3-Cyclopropyl-6-{(E)-1-(3,4-difluorophenyl)-2-[(2R)-5-oxopyrrolidin-2-yl]ethenyl}pyridin-2(1H)-one], 500 to 3000 nM.

`Cc1cc(/C(=C\[C@H]2CCC(=O)N2)c2ccc(C3CC3)c(=O)[nH]2)ccc1F` [Example 4-113, 3-Cyclopropyl-6-{(E)-1-(4-fluoro-3-methylphenyl)-2-[(2R)-5-oxopyrrolidin-2-yl]ethenyl}pyridin-2(1H)-one] gave an EC50 of 500 to 3000 nM. For the compound `Cc1ccc(/C(=C\[C@H]2CCC(=O)N2)c2ccc(C3CC3)c(=O)[nH]2)cc1F` [Example 4-114, 3-Cyclopropyl-6-{(E)-1-(3-fluoro-4-methylphenyl)-2-[(2R)-5-oxopyrrolidin-2-yl]ethenyl}pyridin-2(1H)-one], the EC50 lay within 10 to 500 nM.

`Cc1ccc(/C(=C\[C@H]2CCC(=O)N2)c2ccc(C3CC3)c(=O)[nH]2)cc1C` [Example 4-115, 3-Cyclopropyl-6-{(E)-1-(3,4-dimethylphenyl)-2-[(2R)-5-oxopyrrolidin-2-yl]ethenyl}pyridin-2(1H)-one]: the EC50 was in the range of 10 to 500 nM.

As to `O=C1CC[C@H](/C=C(\c2ccc(C(F)(F)F)c(F)c2)c2ccc(C3CC3)c(=O)[nH]2)N1` [Example 4-116, 3-Cyclopropyl-6-{(E)-1-[3-fluoro-4-(trifluoromethyl)phenyl]-2-[(2R)-5-oxopyrrolidin-2-yl]ethenyl}pyridin-2(1H)-one], the concentration giving a half-maximal response (EC50) fell in the range of 10 to 500 nM.

Compound `O=C1CC[C@H](/C=C(\c2ccc(F)c(C(F)(F)F)c2)c2ccc(C3CC3)c(=O)[nH]2)N1` [Example 4-117, 3-Cyclopropyl-6-{(E)-1-[4-fluoro-3-(trifluoromethyl)phenyl]-2-[(2R)-5-oxopyrrolidin-2-yl]ethenyl}pyridin-2(1H)-one] registered a concentration for a half-maximal effect (EC50) of 500 to 3000 nM. Under `O=C1CC[C@H](/C=C(/c2ccc(C3CC3)c(=O)[nH]2)c2ccc(C(F)(F)F)cc2C(F)(F)F)N1` [Example 4-118, 6-{(E)-1-[2,4-Bis(trifluoromethyl)phenyl]-2-[(2R)-5-oxopyrrolidin-2-yl]ethenyl}-3-cyclopropylpyridin-2(1H)-one] stands 3000 to 10000 nM; under `O=C1CC[C@H](/C=C(\c2cc(C(F)(F)F)cc(C(F)(F)F)c2)c2ccc(C3CC3)c(=O)[nH]2)N1` [Example 4-119, 6-{(E)-1-[3,5-Bis(trifluoromethyl)phenyl]-2-[(2R)-5-oxopyrrolidin-2-yl]ethenyl}-3-cyclopropylpyridin-2(1H)-one], 500 to 3000 nM. Under `O=C1CC[C@H](/C=C(\c2ccc(Cl)nc2)c2ccc(C3CC3)c(=O)[nH]2)N1` [Example 4-120, 6-{(E)-1-(6-Chloropyridin-3-yl)-2-[(2R)-5-oxopyrrolidin-2-yl]ethenyl}-3-cyclopropylpyridin-2(1H)-one] stands 500 to 3000 nM; under `O=C1CC[C@H](/C=C(\c2ccc(F)nc2)c2ccc(C3CC3)c(=O)[nH]2)N1` [Example 4-121, 3-Cyclopropyl-6-{(E)-1-(6-fluoropyridin-3-yl)-2-[(2R)-5-oxopyrrolidin-2-yl]ethenyl}pyridin-2(1H)-one], 3000 to 10000 nM. In turn, `O=C1CC[C@H](/C=C(/c2ccc(C3CC3)c(=O)[nH]2)c2ccc(F)cc2O)N1` [Example 4-122, 3-Cyclopropyl-6-{(E)-1-(4-fluoro-2-hydroxyphenyl)-2-[(2R)-5-oxopyrrolidin-2-yl]ethenyl}pyridin-2(1H)-one] had an EC50 of 10 to 500 nM. Under `O=C1CC[C@H](/C=C(\c2ccc3c(c2)CCO3)c2ccc(C3CC3)c(=O)[nH]2)N1` [Example 4-123, 3-Cyclopropyl-6-{(E)-1-(2,3-dihydro-1-benzofuran-5-yl)-2-[(2R)-5-oxopyrrolidin-2-yl]ethenyl}pyridin-2(1H)-one] stands 10 to 500 nM; under `COc1cc(/C(=C\[C@H]2CCC(=O)N2)c2ccc(C3CC3)c(=O)[nH]2)ccc1Cl` [Example 4-124, 6-{(E)-1-(4-Chloro-3-methoxyphenyl)-2-[(2R)-5-oxopyrrolidin-2-yl]ethenyl}-3-cyclopropylpyridin-2(1H)-one], 10 to 500 nM; under `CCc1cc(/C(=C\[C@H]2CCC(=O)N2)c2ccc(C3CC3)c(=O)[nH]2)ccc1Cl` [Example 4-125, 6-{(E)-1-(4-Chloro-3-ethylphenyl)-2-[(2R)-5-oxopyrrolidin-2-yl]ethenyl}-3-cyclopropylpyridin-2(1H)-one], 10 to 500 nM. Consider `O=C1CC[C@H](/C=C(\c2ccc(OC(F)(F)F)cc2)c2ccc(C3CC3)c(=O)[nH]2)N1` [Example 4-126, 3-Cyclopropyl-6-{(E)-2-[(2R)-5-oxopyrrolidin-2-yl]-1-[4-(trifluoromethoxy)phenyl]ethenyl}pyridin-2(1H)-one], for which the EC50 was 10 to 500 nM. On to `O=C1CC[C@H](/C=C(\c2ccc(OC(F)F)cc2)c2ccc(C3CC3)c(=O)[nH]2)N1` [Example 4-127, 3-Cyclopropyl-6-{(E)-1-[4-(difluoromethoxy)phenyl]-2-[(2R)-5-oxopyrrolidin-2-yl]ethenyl}pyridin-2(1H)-one], for which the concentration for a half-maximal effect (EC50) lay in the range of 10 to 500 nM.
